The text below walks through data of patent publication US10150728B2, “Alkylene derivatives” (Shionogi & Co., Ltd., priority 2013, dated 2018).

One assay deals with recombinant human ACC1 (Homo sapiens (Human), UniProt Q13085). Put plainly: Measurement of inhibitory activity on human ACC1 (MALDI-TOF MS, acetyl CoA to malonyl CoA conversion). Format: biochemical. From the text:
Preparation 2: Preparation of Recombinant Human ACC1
After a cDNA encoding human ACC1 (1 amino acid residue to 2346 amino acid residues from the N-terminus) was cloned from human liver cDNA library (BioChain), human ACC1 gene containing myc-tag and His-tag sequence at 3′ terminus was inserted into pIEXBAC3 (Novagen). Recombinant baculovirus was generated using FlashBACGOLD system (Oxford Expression Technologies) according to the manufacturer's protocol. To express human ACC1, Sf-9 cells were infected with recombinant baculovirus. After infected cells were disrupted, the filtrated lysate was subjected to Ni-affinity chromatography and anion-exchange chromatography. The fractions containing human ACC1 protein were pooled as recombinant human ACC1 solution.
The Measurement of Inhibitory Activity on Human ACC1 and the ACC2
Recombinant human ACC1 and recombinant human ACC2, which were prepared by the method mentioned above, were preincubated with assay buffer solution (50 mM HEPES-KOH (pH 7.4), 10 mM magnesium chloride, 6-10 mM potassium citrate, 4 mM reduced form of glutathione, 1.5 mg/ml bovine serum albumin) for one hour. Then, 0.2 μL of each this invention compound solution (in DMSO) were dispensed to 384-well microplate, 5 μL of the preincubated enzyme solution and 5 μL of substrate solution (50 mM HEPES-KOH (pH 7.4), 1 mM ATP, 0.8 mM acetyl CoA and 25-50 mM potassium bicarbonate) were added to microplate. After centrifugation and shaking, the reaction mixtures were incubated in a humidified box at room temperature for 1 to 3 hours. After the incubation, the enzyme reactions were stopped by the addition of EDTA. Then, after the samples were cocrystallized with CHCA (α-cyano-4-hydroxy cinnamic acid) matrices on MALDI target plate, by using the matrix assist laser […] time-of-flight mass spectrometer (MALDI-TOF MS), samples were measured in reflector negative mode. Deprotonated ions of acetyl CoA (AcCoA) of substrate and malonyl CoA (MalCoA) of the reaction product were detected, then, the conversion rates of acetyl CoA to malonyl CoA was calculated by the intensity of [MalCoA-H]−/(Intensity of [MalCoA-H]−+Intensity of [AcCoA-H]−) using each signal strength. […] In addition, potassium citrate concentrations in assay buffer solution, potassium hydrogen carbonate concentrations in substrate solution and incubation time were adjusted by each lot of enzyme.

The next assay has as its target recombinant human ACC2 (Homo sapiens (Human), UniProt O00763). The assay can be described thus: Measurement of inhibitory activity on human ACC2 (MALDI-TOF MS, acetyl CoA to malonyl CoA conversion). The class given is biochemical. To be noted: Table 154. The gist of the method: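 His-tagged human ACC2 (residues 27–2458) from baculovirus-infected Sf-9 cells was preincubated 1 h in pH 7.4 HEPES-KOH buffer with MgCl2, 6-10 mM potassium citrate, glutathione and BSA. Substrate solution held 1 mM ATP, 0.8 mM acetyl CoA and 25-50 mM bicarbonate. After 1–3 h at room temperature, malonyl CoA/(malonyl+acetyl CoA) was read by negative-mode MALDI-TOF MS; citrate, bicarbonate and time varied by enzyme lot.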

recombinant human ACC2, sequence (O00763 27-2458): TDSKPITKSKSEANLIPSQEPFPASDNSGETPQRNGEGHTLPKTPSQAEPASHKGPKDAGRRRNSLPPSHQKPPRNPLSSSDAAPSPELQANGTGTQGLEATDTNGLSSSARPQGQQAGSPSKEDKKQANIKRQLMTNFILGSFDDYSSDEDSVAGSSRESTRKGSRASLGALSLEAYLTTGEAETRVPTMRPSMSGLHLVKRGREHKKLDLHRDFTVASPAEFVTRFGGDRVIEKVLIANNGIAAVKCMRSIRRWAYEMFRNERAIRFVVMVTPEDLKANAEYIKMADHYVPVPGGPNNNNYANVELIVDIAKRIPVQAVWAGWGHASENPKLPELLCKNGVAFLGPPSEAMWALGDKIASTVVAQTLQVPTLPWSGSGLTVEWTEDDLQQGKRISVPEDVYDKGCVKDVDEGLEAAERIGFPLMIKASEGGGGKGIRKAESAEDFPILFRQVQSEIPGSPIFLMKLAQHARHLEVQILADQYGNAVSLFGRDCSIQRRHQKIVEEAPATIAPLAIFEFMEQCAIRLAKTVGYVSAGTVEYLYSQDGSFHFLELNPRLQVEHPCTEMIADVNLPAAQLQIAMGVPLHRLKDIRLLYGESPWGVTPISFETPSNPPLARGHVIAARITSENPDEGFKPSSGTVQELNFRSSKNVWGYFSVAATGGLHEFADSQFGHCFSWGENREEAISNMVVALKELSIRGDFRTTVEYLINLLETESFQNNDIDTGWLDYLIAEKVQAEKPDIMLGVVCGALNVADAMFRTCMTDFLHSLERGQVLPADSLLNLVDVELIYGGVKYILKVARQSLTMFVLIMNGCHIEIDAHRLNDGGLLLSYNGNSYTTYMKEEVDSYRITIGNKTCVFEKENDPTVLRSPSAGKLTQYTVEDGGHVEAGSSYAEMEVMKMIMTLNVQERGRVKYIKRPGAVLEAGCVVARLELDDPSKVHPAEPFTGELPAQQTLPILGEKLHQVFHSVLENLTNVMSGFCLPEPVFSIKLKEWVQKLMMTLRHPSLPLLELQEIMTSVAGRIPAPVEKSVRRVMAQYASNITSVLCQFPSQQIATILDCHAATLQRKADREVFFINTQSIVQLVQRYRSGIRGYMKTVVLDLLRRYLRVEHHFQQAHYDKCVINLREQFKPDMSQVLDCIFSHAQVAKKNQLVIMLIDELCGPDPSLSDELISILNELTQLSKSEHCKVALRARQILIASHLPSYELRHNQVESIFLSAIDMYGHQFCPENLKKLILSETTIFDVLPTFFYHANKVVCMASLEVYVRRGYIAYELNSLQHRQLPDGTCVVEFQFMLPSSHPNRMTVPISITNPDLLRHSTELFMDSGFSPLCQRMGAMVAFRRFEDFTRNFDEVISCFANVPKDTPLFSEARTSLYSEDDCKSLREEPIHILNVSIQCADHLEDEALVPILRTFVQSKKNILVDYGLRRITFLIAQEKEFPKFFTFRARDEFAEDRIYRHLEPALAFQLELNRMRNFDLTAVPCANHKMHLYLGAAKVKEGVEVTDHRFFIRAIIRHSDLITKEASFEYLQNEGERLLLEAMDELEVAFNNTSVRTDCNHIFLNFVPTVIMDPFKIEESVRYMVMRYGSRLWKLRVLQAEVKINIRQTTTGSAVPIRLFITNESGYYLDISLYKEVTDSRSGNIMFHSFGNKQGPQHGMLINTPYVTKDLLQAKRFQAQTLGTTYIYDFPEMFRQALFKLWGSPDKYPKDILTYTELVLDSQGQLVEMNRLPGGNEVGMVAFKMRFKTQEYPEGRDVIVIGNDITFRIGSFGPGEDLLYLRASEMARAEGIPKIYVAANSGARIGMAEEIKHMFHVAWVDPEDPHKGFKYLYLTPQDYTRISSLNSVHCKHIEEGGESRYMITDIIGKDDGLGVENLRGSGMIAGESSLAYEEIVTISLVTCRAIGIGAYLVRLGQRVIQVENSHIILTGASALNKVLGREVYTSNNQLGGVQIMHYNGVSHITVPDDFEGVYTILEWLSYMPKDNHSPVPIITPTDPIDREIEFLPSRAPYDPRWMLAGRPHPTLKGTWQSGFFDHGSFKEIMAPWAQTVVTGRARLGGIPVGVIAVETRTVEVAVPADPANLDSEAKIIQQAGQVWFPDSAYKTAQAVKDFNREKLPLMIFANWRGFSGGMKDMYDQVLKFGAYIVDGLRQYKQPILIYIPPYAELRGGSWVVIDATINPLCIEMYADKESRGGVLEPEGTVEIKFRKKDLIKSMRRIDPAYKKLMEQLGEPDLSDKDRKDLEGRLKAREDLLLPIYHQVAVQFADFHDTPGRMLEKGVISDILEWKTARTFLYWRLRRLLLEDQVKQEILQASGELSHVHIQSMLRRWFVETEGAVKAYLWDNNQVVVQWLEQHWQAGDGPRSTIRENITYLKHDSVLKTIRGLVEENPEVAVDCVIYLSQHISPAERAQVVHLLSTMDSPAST

As for `CC(=O)N[C@@H](C)CC(=O)c1ccc(Oc2ccc(OCC3CC3)cc2Cl)cc1` [Compound I-001], the IC50 (usually the midpoint of a concentration-inhibition curve) at recombinant human ACC1 is greater than 100000 nM; on recombinant human ACC2 it was 71 nM.

`CC(=O)N[C@@H](C)CC(=O)c1cnc(Oc2ccc(OCC3CC3)cc2Cl)s1` [Compound I-002]: the IC50 on recombinant human ACC1 was greater than 100000 nM; on recombinant human ACC2 it was 770 nM. For the molecule `CCCc1ccc(Oc2ccc(OC[C@H](C)NC(=O)OC(C)(C)C)cn2)c(Cl)c1` [Compound I-003], at recombinant human ACC1, the half-inhibitory concentration (IC50) is greater than 100000 nM.

Take `CC(=O)N[C@@H](C)COc1cnc(Oc2ccc3nc(C(C)C)oc3c2Cl)cn1` [Compound I-037]: the concentration for half-maximal inhibition (IC50) is greater than 100000 nM at recombinant human ACC1 and 167 nM on recombinant human ACC2. On to `CCn1c(=O)sc2c(F)c(Oc3cnc(O[C@@H](C)[C@H](C)NC(C)=O)cn3)ccc21` [Compound I-058], for which, on recombinant human ACC1, the IC50 was greater than 100000 nM. For `CC(=O)N[C@@H](C)CO[C@H]1CC[C@H](Oc2ccc3nn(C(C)C)cc3c2Cl)CC1` [Compound I-067], the figures for the 50% inhibitory concentration (IC50) on recombinant human ACC1 and on recombinant human ACC2 were greater than 100000 nM and 933 nM, respectively. Take `CC(=O)N[C@@H](C)CO[C@H]1CC[C@H](Oc2ncc3cc(Br)ccc3n2)CC1` [Compound I-079]: the IC50 at recombinant human ACC1 was greater than 100000 nM; at recombinant human ACC2, 1760 nM. Take `CC(=O)N[C@@H](C)COc1cnc(Oc2ccc3nc(C(C)C)ncc3c2Cl)cn1` [Compound I-081]: the IC50 on recombinant human ACC1 was greater than 100000 nM; at recombinant human ACC2 it was 344 nM. Turning to `CC(=O)N[C@@H](C)COc1cnc(Oc2ccc(C(=O)NC3CCOCC3)c(F)c2F)cn1` [Compound I-091], the IC50 at recombinant human ACC1 was greater than 100000 nM. With `CC(=O)N[C@@H](C)CO[C@H]1C[C@H](COc2ccc3nc(C(C)(F)F)sc3c2Cl)C1` [Compound I-098], the IC50 on recombinant human ACC1 was greater than 100000 nM; at recombinant human ACC2, 792 nM. Consider `CCOc1nc2ccc(OC[C@H]3C[C@H](OC[C@H](C)NC(C)=O)C3)c(C#N)c2s1` [Compound I-103], for which the IC50 at recombinant human ACC1 is greater than 100000 nM; at recombinant human ACC2, 4500 nM. For the molecule `CC(=O)N[C@H]1CCC[C@@H]1Oc1ccc(Oc2ccc3nc(C(C)C)sc3c2Cl)cn1` [Compound I-106], the figures for the IC50 at recombinant human ACC1 and at recombinant human ACC2 were greater than 100000 nM and 91 nM, respectively.
